Literature values as cited in US20170176475A1, “NOVEL METHODS AND KITS FOR DETECTING A RIFAMYCIN, OR DERIVATIVE OR ANALOGUE THEREOF” (DREXEL UNIVERSITY, priority 2014, published 2017).

time by which nearly all the drug in the bile is present in the deacetylated form (bile, normal metabolizing patients): ≤ 6 h
time to peak plasma drug concentrations after intake (orally administered): two to four
SMILES: CO[C@H]1/C=C/O[C@@]2(C)Oc3c(C)c(O)c4c(O)c(c(/C=N/N5CCN(C)CC5)c(O)c4c3C2=O)NC(=O)/C(C)=C\C=C\[C@H](C)[C@H](O)[C@@H](C)[C@@H](O)[C@@H](C)[C@H](OC(C)=O)[C@@H]1C [rifampicin, (7S,9E,11S,12R,13S,14R,15R,16R,17S, 18S,19E,21Z)-2,15,17,27,29-pentahydroxy-11-methoxy-3,7,12,14,16,18,22-heptamethyl-26-{(E)-[(4-methylpiperazin-1-yl)imino]methyl}-6,23-dioxo-8,30-dioxa-24-azatetracyclo [23.3.1.1^4,7.0^5,28]triaconta-1(28),2,4,9,19,21,25(29),26-octaen-13-yl acetate]
